Results reported in PubChem BioAssay (NCI).
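Results reflect a 48-hour exposure of cells in 96-well plates to compound at five concentrations. The concentration for 50% growth inhibition is given as GI50. Definition used: TGI = concentration required for complete inhibition of growth.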

Assays:
Test in all cases: NCI tumour cell line growth inhibition, 48 h
SN12C renal = test system: SN12C renal
SK-MEL-28 melanoma = test system: SK-MEL-28 melanoma
SK-OV-3 ovarian = test system: SK-OV-3 ovarian
786-0 renal = test system: 786-0 renal
SF-295 CNS = test system: SF-295 CNS
UO-31 renal = test system: UO-31 renal
RPMI-8226 leukemia = test system: RPMI-8226 leukemia
NCI-H522 lung = test system: NCI-H522 lung
DU-145 prostate = test system: DU-145 prostate
OVCAR-8 ovarian = test system: OVCAR-8 ovarian
CCRF-CEM leukemia = test system: CCRF-CEM leukemia
HCT-15 colon = test system: HCT-15 colon
MALME-3M melanoma = test system: MALME-3M melanoma
NCI-H460 lung = test system: NCI-H460 lung
HCT-116 colon = test system: HCT-116 colon
OVCAR-5 ovarian = test system: OVCAR-5 ovarian
PC-3 prostate = test system: PC-3 prostate
LOX IMVI melanoma = test system: LOX IMVI melanoma
MCF7 breast = test system: MCF7 breast
KM12 colon = test system: KM12 colon
SF-539 CNS = test system: SF-539 CNS
SF-268 CNS = test system: SF-268 CNS
CAKI-1 renal = test system: CAKI-1 renal
SK-MEL-5 melanoma = test system: SK-MEL-5 melanoma
MOLT-4 leukemia = test system: MOLT-4 leukemia
SK-MEL-2 melanoma = test system: SK-MEL-2 melanoma
NCI/ADR-RES ovarian = test system: NCI/ADR-RES ovarian
U251 CNS = test system: U251 CNS

Compound `O=[N+]([O-])c1cc2c(c([N+](=O)[O-])c1)Nc1ccccc1O2` has a GI50 (SN12C renal) of 6 µM, a TGI (SN12C renal) of over 100 µM and a GI50 (SK-MEL-28 melanoma) of 19.5 µM. For the same compound, the TGI (SK-MEL-28 melanoma) was over 100 µM, the GI50 (SK-OV-3 ovarian) was 15.2 µM and the TGI (SK-OV-3 ovarian) was 58.6 µM. The GI50 (786-0 renal) was 5.81 µM, the TGI (786-0 renal) was 39.1 µM and the GI50 (SF-295 CNS) was 4.7 µM. For the same compound, the TGI (SF-295 CNS) was 29.1 µM, the GI50 (UO-31 renal) was 2.76 µM and the TGI (UO-31 renal) was 36.5 µM. For the same compound, the GI50 (RPMI-8226 leukemia) was 2.96 µM, the TGI (RPMI-8226 leukemia) was 8.2 µM and the GI50 (NCI-H522 lung) was 2.78 µM. For the same compound, the TGI (NCI-H522 lung) was 31.4 µM, the GI50 (DU-145 prostate) was 7.32 µM and the TGI (DU-145 prostate) was over 100 µM. The GI50 (OVCAR-8 ovarian) was 10 µM, the TGI (OVCAR-8 ovarian) was over 100 µM and the GI50 (CCRF-CEM leukemia) was 13.2 µM. For the same compound, the TGI (CCRF-CEM leukemia) was over 100 µM, the GI50 (HCT-15 colon) was 5.49 µM and the TGI (HCT-15 colon) was over 100 µM. It also gave a GI50 (MALME-3M melanoma) of 4.08 µM, a TGI (MALME-3M melanoma) of over 100 µM and a GI50 (NCI-H460 lung) of 4.62 µM. The TGI (NCI-H460 lung) was 83.1 µM, the GI50 (HCT-116 colon) was 4.49 µM and the TGI (HCT-116 colon) was 63 µM. The GI50 (OVCAR-5 ovarian) was 14.9 µM, the TGI (OVCAR-5 ovarian) was 62.2 µM and the GI50 (PC-3 prostate) was 4.12 µM. For the same compound, the TGI (PC-3 prostate) was 34 µM, the GI50 (LOX IMVI melanoma) was 4.67 µM and the TGI (LOX IMVI melanoma) was over 100 µM. It also gave a GI50 (MCF7 breast) of 4.96 µM, a TGI (MCF7 breast) of over 100 µM and a GI50 (KM12 colon) of 6.68 µM. The TGI (KM12 colon) was over 100 µM, the GI50 (SF-539 CNS) was 13.3 µM and the TGI (SF-539 CNS) was 74.6 µM. It also gave a GI50 (SF-268 CNS) of 6.53 µM, a TGI (SF-268 CNS) of over 100 µM and a GI50 (CAKI-1 renal) of 5.36 µM. It also gave a TGI (CAKI-1 renal) of 26.9 µM, a GI50 (SK-MEL-5 melanoma) of 3.81 µM and a TGI (SK-MEL-5 melanoma) of 21.6 µM. The GI50 (MOLT-4 leukemia) was 6.22 µM, the TGI (MOLT-4 leukemia) was over 100 µM and the GI50 (SK-MEL-2 melanoma) was 7.48 µM. The TGI (SK-MEL-2 melanoma) was 40.3 µM, the GI50 (NCI/ADR-RES ovarian) was 3.41 µM and the TGI (NCI/ADR-RES ovarian) was 55.4 µM. For the same compound, the GI50 (U251 CNS) was 3.32 µM and the TGI (U251 CNS) was 22.6 µM.
